ChEMBL document CHEMBL3885861, “Open TG-GATES”

Species: Rattus norvegicus
Assay: Open TG-GATES - Regimen: Single
Type: toxicity, organism-based, Sprague-Dawley
Design: regimen Single, gender Male, age 6 weeks
Conditions: in vivo, po, 60 mg/kg, route gavage, dose level Middle; for APTT / Bas / Eos / Fbg / Hb / Ht / Lym / MCH / MCHC / MCV / Mono / Neu / PT / Plat / RBC / Ret / WBC: tissue Blood; for KIDNEY_L / KIDNEY_R / KIDNEY_TOTAL: tissue Kidney; for LIVER: tissue Liver; for A/G / ALP / ALT / AST / BUN / CRE / Ca / Cl / DBIL / GLC / IP / K / LDH / Na / PL / RALB / TBIL / TC / TG / TP / gamma-GTP: tissue Plasma

Molecule `CC(CN1c2ccccc2Sc2ccccc21)N(C)C` (configuration not stated) [PROMETHAZINE] has a TERMINAL_BW (3 h) of 213.4 g, an APTT (3 h) of 22.4 s and a Bas (3 h) of 0%. For the same molecule, the Eos (3 h) was 1%, the Fbg (3 h) was 317 mg/dL and the Hb (3 h) was 13.2 g/dL. The Ht (3 h) was 40.6%, the Lym (3 h) was 71.6% and the MCH (3 h) was 20.2 pg. The MCHC (3 h) was 32.6%, the MCV (3 h) was 62 fL and the Mono (3 h) was 2.2%. It also gave a Neu (3 h) of 25%, a PT (3 h) of 16.4 s and a Plat (3 h) of 126 x10_4/uL. It also gave an RBC (3 h) of 655.2 x10_4/ul, a Ret (3 h) of 7.3% and a WBC (3 h) of 64.7 x10_2/uL. It also gave a KIDNEY_L (3 h) of 0.9 g, a KIDNEY_R (3 h) of 0.9 g and a KIDNEY_TOTAL (3 h) of 1.9 g. It also gave an LIVER (3 h) of 9.3 g, an A/G (3 h) of 1.3 and an ALP (3 h) of 1673 IU/L. The ALT (3 h) was 56.2 IU/L, the AST (3 h) was 87.6 IU/L and the BUN (3 h) was 9.6 mg/dL. The CRE (3 h) was 0.2 mg/dL, the Ca (3 h) was 10.5 mg/dL and the Cl (3 h) was 105.6 meq/L. It also gave a DBIL (3 h) of 0.024 mg/dL, a GLC (3 h) of 172.8 mg/dL and an IP (3 h) of 9.6 mg/dL. It also gave a K (3 h) of 4.3 meq/L, an LDH (3 h) of 222.6 IU/L and a Na (3 h) of 142.6 meq/L. The PL (3 h) was 132 mg/dL, the RALB (3 h) was 3.1 g/dL and the TBIL (3 h) was 0.016 mg/dL. The TC (3 h) was 75 mg/dL, the TG (3 h) was 50 mg/dL and the TP (3 h) was 5.5 g/dL. The gamma-GTP (3 h) was 1.2 IU/L, the TERMINAL_BW (6 h) was 210 g and the APTT (6 h) was 23.8 s. The Bas (6 h) was 0%, the Eos (6 h) was 0.8% and the Fbg (6 h) was 322 mg/dL. For the same molecule, the Hb (6 h) was 13.4 g/dL, the Ht (6 h) was 40.7% and the Lym (6 h) was 77.2%. The MCH (6 h) was 20.1 pg, the MCHC (6 h) was 33% and the MCV (6 h) was 61.1 fL. The Mono (6 h) was 2.8%, the Neu (6 h) was 18.4% and the PT (6 h) was 16.3 s. For the same molecule, the Plat (6 h) was 112.6 x10_4/uL, the RBC (6 h) was 667.8 x10_4/ul and the Ret (6 h) was 7.3%. It also gave a WBC (6 h) of 85.9 x10_2/uL, a KIDNEY_L (6 h) of 0.9 g and a KIDNEY_R (6 h) of 0.9 g. For the same molecule, the KIDNEY_TOTAL (6 h) was 1.8 g, the LIVER (6 h) was 8.6 g and the A/G (6 h) was 1.3. For the same molecule, the ALP (6 h) was 1478.6 IU/L, the ALT (6 h) was 43.2 IU/L and the AST (6 h) was 74.6 IU/L. The BUN (6 h) was 9.4 mg/dL, the CRE (6 h) was 0.2 mg/dL and the Ca (6 h) was 10.9 mg/dL. It also gave a Cl (6 h) of 105.2 meq/L, a DBIL (6 h) of 0.016 mg/dL and a GLC (6 h) of 180.6 mg/dL. The IP (6 h) was 9.6 mg/dL, the K (6 h) was 4.3 meq/L and the LDH (6 h) was 192.2 IU/L. For the same molecule, the Na (6 h) was 141.8 meq/L, the PL (6 h) was 125 mg/dL and the RALB (6 h) was 3 g/dL. The TBIL (6 h) was 0.022 mg/dL, the TC (6 h) was 71.6 mg/dL and the TG (6 h) was 49 mg/dL. The TP (6 h) was 5.5 g/dL, the gamma-GTP (6 h) was 1.4 IU/L and the TERMINAL_BW (9 h) was 211 g. For the same molecule, the APTT (9 h) was 24.1 s, the Bas (9 h) was 0% and the Eos (9 h) was 1%. For the same molecule, the Fbg (9 h) was 315.8 mg/dL, the Hb (9 h) was 13.3 g/dL and the Ht (9 h) was 40.8%. For the same molecule, the Lym (9 h) was 78.6%, the MCH (9 h) was 20.4 pg and the MCHC (9 h) was 32.6%. It also gave an MCV (9 h) of 62.5 fL, a Mono (9 h) of 3% and a Neu (9 h) of 17.2%. The PT (9 h) was 16.6 s, the Plat (9 h) was 122 x10_4/uL and the RBC (9 h) was 652.4 x10_4/ul. It also gave a Ret (9 h) of 7.6%, a WBC (9 h) of 101.4 x10_2/uL and a KIDNEY_L (9 h) of 0.9 g. For the same molecule, the KIDNEY_R (9 h) was 0.9 g, the KIDNEY_TOTAL (9 h) was 1.8 g and the LIVER (9 h) was 8.3 g. It also gave an A/G (9 h) of 1.3, an ALP (9 h) of 1318.2 IU/L and an ALT (9 h) of 43.2 IU/L. The AST (9 h) was 69.6 IU/L, the BUN (9 h) was 11.6 mg/dL and the CRE (9 h) was 0.2 mg/dL. It also gave a Ca (9 h) of 10.7 mg/dL, a Cl (9 h) of 106.2 meq/L and a DBIL (9 h) of 0.02 mg/dL. The GLC (9 h) was 179.2 mg/dL, the IP (9 h) was 9.5 mg/dL and the K (9 h) was 4.2 meq/L. The LDH (9 h) was 155.8 IU/L, the Na (9 h) was 140.2 meq/L and the PL (9 h) was 131 mg/dL. The RALB (9 h) was 3 g/dL, the TBIL (9 h) was 0.026 mg/dL and the TC (9 h) was 77 mg/dL. It also gave a TG (9 h) of 46.8 mg/dL, a TP (9 h) of 5.4 g/dL and a gamma-GTP (9 h) of 1.2 IU/L. For the same molecule, the TERMINAL_BW (24 h) was 217.9 g, the APTT (24 h) was 23.6 s and the Bas (24 h) was 0%. For the same molecule, the Eos (24 h) was 1%, the Fbg (24 h) was 311.6 mg/dL and the Hb (24 h) was 13.4 g/dL. It also gave a Ht (24 h) of 40.3%, a Lym (24 h) of 80% and an MCH (24 h) of 21.1 pg. It also gave an MCHC (24 h) of 33.3%, an MCV (24 h) of 63.4 fL and a Mono (24 h) of 2.2%. It also gave a Neu (24 h) of 16%, a PT (24 h) of 16.7 s and a Plat (24 h) of 126.1 x10_4/uL. For the same molecule, the RBC (24 h) was 635.4 x10_4/ul, the Ret (24 h) was 6.8% and the WBC (24 h) was 113 x10_2/uL. The KIDNEY_L (24 h) was 1 g, the KIDNEY_R (24 h) was 1 g and the KIDNEY_TOTAL (24 h) was 1.9 g. For the same molecule, the LIVER (24 h) was 9.5 g, the A/G (24 h) was 1.3 and the ALP (24 h) was 1785 IU/L. It also gave an ALT (24 h) of 46.8 IU/L, an AST (24 h) of 68 IU/L and a BUN (24 h) of 17.6 mg/dL. It also gave a CRE (24 h) of 0.2 mg/dL, a Ca (24 h) of 10.8 mg/dL and a Cl (24 h) of 106.4 meq/L. It also gave a DBIL (24 h) of 0.004 mg/dL, a GLC (24 h) of 190.6 mg/dL and an IP (24 h) of 7.4 mg/dL. It also gave a K (24 h) of 4.1 meq/L, an LDH (24 h) of 185.4 IU/L and a Na (24 h) of 142 meq/L. The PL (24 h) was 127.6 mg/dL, the RALB (24 h) was 3.1 g/dL and the TBIL (24 h) was 0.014 mg/dL. For the same molecule, the TC (24 h) was 68.8 mg/dL, the TG (24 h) was 73 mg/dL and the TP (24 h) was 5.5 g/dL. It also gave a gamma-GTP (24 h) of 1.2 IU/L.
